Common to all, as to assay: Protein kinase inhibition assay
Type in all cases: biochemical

The target in one experiment is PKCε(h) (Homo sapiens, UniProt Q02156). Particulars: read-out: percent residual activity of PKCε(h). On the procedure:
(§1) Certain compounds were tested for activity in protein kinase inhibition assays. All substrates were dissolved and diluted to working stocks in de-ionized water, apart from histone H1 (10× working stock in 20 mM MOPS pH 7.0), PDKtide (10× working stock in 50 mM Tris pH 7.0) ATF2 (which is typically stored at a 20× working stock in 50 mM Tris pH 7.5, 150 mM NaCl, 0.1 mM EGTA, 0.03% Brij-35, 50% glycerol, 1 mM benzamidine, 0.2 mM PMSF and 0.1% R-mercaptoethanol), KKLNRTLSFAEPG (SEQ ID NO:203) and RRRLSFAEPG (SEQ ID NO:204) (50 mM HEPES pH 7.4) and GGEEEEYFELVKKKK (SEQ ID NO:205) (20 mM MOPS pH 7.0). All kinases were pre-diluted to a 10× working concentration prior to addition into the assay. The composition of the dilution buffer for each kinase is detailed below.
In a final reaction volume of 25 μl, PKCε (h) (5-10 mU) is incubated with 20 mM HEPES pH 7.4, 0.03% Triton X-100, 0.1 mg/ml phosphatidylserine, 10 μg/ml diacylglycerol, 50 μM ERMRPRKRQGSVRRRV (SEQ ID NO:224), 10 mM MgAcetate and [gamma-33P-ATP] (specific activity approx. 500 cpm/pmol, concentration as required). The reaction is initiated by the addition of the MgATP mix. After incubation for 40 minutes at room temperature, the reaction is stopped by the addition of 5 pi of a 3% phosphoric acid solution. […]

In the next experiment the target is MAPK2(h) (Homo sapiens, UniProt P28482). Particulars: read-out: percent residual activity of MAPK2(h). As for the experimental part:
as §1
(§2) In a final reaction volume of 25 μl, MAPK2 (h) (5-10 mU) is incubated with 25 mM Tris pH 7.5, 0.02 mM EGTA, 0.33 mg/ml myelin basic protein, 10 mM MgAcetate and [gamma-33P-ATP] (specific activity approx. 500 cpm/pmol, concentration as required). The reaction is initiated by the addition of the MgATP mix. After incubation for 40 minutes at room temperature, the reaction is stopped by the addition of Stl of a 3% phosphoric acid solution. 10 μl of the reaction is then spotted onto a P30 filtermat and washed three times for 5 minutes in 75 mM phosphoric acid and once in methanol prior to drying and scintillation counting.

The next experiment addresses MST1(h) (Homo sapiens, UniProt Q13043). Particulars: read-out: percent residual activity of MST1(h). On the procedure:
as §1
as §2, with “μl, MST1” for “μl, MAPK2”, “with 8” for “with 25”, “mM MOPS” for “mM Tris”, “pH 7.0, 0.2” for “pH 7.5, 0.02”, “mM EDTA, 250 μM KKSRGDYMTMQIG (SEQ ID NO:210),” for “mM EGTA, 0.33 mg/ml myelin basic protein,”, “of 5 μl” for “of Stl”

For a further experiment, the target named is EphA5(h) (Homo sapiens, UniProt P54756). Particulars: read-out: percent residual activity of EphA5(h). As for the experimental part:
as §1
(§3) In a final reaction volume of 25 μl, EphA5 (h) (5-10 mU) is incubated with 8 mM MOPS pH 7.0, 0.2 mM EDTA, 2.5 mM MnCl2, 0.1 mg/ml poly (Glu, Tyr) 4:1, 10 mM MgAcetate and [gamma-33P-ATP] (specific activity approx. 500 cpm/pmol, concentration as required). The reaction is initiated by the addition of the MgATP mix. After incubation for 40 minutes at room temperature, the reaction is stopped by the addition of 5 μl of a 3% phosphoric acid solution. 10 μl of the reaction is then spotted onto a Filtermat A and washed three times for 5 minutes in 75 mM phosphoric acid and once in methanol prior to drying and scintillation counting.

In the next experiment the target is PKA(h) (Homo sapiens, UniProt P17612). Particulars: read-out: percent residual activity of PKA(h). On the procedure:
as §1
as §3, with “PKA” for “EphA5”, “30 μM LRRASLG (SEQ ID NO:209) (Kemptide),” for “2.5 mM MnCl2, 0.1 mg/ml poly (Glu, Tyr) 4:1,”, “[y-33P-ATP]” for “[gamma-33P-ATP]”, “P30 filtermat” for “Filtermat A”, “50” for “75”

The next experiment addresses Fms(h) (Homo sapiens, UniProt P07333). Particulars: read-out: percent residual activity of Fms(h). On the procedure: as §1
as §3, with “Fms” for “EphA5”, “250 μM KKKSPGEYVNIEFG (SEQ ID NO:207),” for “2.5 mM MnCl2, 0.1 mg/ml poly (Glu, Tyr) 4:1,”, “[y-33P-ATP]” for “[gamma-33P-ATP]”, “P30 filtermat” for “Filtermat A”

This passage reports remaining activity results from patent US20070117770A1, “Human ribosomal DNA (rDNA) and ribosomal RNA (rRNA) nucleic acids and uses thereof” (Cylene Pharmaceuticals, Inc., priority 2005, published 2007).

SMILES strings stand for the structures.

Chain of MAPK2(h) (P28482 whole entry): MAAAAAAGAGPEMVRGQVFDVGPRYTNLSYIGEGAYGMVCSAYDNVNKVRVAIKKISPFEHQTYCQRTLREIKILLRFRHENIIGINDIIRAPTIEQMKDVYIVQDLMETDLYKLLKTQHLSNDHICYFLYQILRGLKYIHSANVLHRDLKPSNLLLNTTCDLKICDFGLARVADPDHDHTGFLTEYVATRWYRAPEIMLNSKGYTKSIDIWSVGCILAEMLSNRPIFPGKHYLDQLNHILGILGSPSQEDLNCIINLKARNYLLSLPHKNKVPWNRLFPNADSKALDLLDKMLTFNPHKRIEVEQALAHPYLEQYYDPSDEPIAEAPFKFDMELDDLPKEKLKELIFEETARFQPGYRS
Chain of MST1(h) (Q13043 whole entry): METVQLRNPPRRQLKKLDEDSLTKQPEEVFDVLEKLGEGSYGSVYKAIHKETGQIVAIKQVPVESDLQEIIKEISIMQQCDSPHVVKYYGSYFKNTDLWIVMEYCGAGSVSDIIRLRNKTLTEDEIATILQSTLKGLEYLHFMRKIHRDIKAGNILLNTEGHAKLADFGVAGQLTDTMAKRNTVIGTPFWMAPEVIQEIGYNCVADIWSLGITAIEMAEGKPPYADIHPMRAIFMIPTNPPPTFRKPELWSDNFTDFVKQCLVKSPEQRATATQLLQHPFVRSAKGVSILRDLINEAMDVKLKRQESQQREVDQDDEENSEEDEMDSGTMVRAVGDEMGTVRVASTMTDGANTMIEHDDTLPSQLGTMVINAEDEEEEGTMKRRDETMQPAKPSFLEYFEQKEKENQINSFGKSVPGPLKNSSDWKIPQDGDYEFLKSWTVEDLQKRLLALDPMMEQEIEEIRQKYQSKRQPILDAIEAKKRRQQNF
Chain of PKCε(h) (Q02156 whole entry): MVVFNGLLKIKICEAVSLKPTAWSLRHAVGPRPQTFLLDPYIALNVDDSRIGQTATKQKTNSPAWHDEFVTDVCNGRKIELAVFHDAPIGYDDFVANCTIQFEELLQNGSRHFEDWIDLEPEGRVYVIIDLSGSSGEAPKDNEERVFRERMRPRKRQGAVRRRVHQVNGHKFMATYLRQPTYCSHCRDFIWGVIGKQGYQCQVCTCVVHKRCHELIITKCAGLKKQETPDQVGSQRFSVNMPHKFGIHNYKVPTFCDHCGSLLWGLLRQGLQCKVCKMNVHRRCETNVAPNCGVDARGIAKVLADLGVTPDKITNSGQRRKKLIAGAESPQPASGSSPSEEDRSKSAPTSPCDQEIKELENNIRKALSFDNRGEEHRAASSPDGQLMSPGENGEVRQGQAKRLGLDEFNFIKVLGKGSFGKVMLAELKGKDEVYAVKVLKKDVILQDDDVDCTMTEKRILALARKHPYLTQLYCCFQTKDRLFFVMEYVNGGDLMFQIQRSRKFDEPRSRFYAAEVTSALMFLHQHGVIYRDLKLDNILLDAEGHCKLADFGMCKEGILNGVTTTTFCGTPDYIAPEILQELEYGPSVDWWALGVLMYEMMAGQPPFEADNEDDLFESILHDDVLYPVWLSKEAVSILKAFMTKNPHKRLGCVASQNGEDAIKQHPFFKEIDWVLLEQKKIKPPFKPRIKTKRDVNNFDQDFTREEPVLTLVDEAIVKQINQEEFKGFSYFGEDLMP
Chain of EphA5(h) (P54756 25-1037): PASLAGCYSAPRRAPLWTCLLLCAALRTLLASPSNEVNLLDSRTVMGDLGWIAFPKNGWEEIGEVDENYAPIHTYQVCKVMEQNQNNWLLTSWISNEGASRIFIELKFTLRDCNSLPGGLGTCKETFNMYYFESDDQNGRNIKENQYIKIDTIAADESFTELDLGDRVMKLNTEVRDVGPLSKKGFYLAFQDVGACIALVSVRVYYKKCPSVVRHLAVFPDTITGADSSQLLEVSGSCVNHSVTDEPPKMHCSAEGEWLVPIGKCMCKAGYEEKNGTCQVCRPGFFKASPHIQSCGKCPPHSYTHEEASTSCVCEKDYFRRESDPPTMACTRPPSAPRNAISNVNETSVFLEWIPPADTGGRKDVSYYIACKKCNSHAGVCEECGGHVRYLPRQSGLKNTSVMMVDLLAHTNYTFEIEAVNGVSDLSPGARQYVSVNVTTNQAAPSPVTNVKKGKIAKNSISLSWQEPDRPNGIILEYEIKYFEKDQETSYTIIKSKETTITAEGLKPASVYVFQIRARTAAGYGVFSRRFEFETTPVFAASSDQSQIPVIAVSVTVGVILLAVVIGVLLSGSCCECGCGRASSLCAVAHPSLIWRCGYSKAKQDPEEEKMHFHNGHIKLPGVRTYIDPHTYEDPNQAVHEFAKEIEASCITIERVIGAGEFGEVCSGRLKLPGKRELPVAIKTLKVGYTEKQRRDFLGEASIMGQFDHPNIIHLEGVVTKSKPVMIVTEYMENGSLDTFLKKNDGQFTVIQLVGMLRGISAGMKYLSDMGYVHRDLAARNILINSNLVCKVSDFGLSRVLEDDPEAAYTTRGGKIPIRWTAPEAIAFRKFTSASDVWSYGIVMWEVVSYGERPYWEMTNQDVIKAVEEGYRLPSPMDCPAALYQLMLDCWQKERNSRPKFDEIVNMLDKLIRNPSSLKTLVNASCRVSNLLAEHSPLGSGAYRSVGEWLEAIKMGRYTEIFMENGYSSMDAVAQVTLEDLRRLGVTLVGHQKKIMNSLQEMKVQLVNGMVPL
Chain of Fms(h) (P07333 20-972): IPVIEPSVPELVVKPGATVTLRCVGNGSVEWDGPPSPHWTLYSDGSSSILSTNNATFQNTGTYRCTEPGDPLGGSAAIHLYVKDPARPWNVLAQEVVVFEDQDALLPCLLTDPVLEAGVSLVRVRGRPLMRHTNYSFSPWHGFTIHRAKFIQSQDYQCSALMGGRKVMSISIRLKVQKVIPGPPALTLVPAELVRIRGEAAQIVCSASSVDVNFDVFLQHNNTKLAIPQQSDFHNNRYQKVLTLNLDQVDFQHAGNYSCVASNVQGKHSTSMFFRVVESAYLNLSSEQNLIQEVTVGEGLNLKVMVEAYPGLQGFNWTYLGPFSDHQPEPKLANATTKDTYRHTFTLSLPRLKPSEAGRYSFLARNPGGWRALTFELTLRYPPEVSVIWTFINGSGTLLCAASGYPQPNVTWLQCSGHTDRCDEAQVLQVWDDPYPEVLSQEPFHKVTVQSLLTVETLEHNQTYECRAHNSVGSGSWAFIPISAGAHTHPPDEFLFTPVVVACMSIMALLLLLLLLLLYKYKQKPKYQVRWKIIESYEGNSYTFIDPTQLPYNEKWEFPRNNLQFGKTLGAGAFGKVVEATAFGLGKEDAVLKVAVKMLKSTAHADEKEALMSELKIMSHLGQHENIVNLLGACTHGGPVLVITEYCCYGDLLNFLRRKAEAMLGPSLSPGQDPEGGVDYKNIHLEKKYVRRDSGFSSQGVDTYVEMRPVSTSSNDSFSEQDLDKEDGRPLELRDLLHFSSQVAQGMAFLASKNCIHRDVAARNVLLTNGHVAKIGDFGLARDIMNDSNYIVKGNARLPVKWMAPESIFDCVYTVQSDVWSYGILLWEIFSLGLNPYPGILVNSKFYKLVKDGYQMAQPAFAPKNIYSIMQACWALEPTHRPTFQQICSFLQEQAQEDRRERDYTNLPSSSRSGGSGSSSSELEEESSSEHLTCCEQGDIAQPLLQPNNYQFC

Take `CN1CCCC1CCNC(=O)c1cn2c3c(c(N4CCC(c5cnccn5)C4)c(F)cc3c1=O)Oc1cc3ccccc3cc1-2` (stereo not drawn) [Compound A-1]: the remaining activity at 2.5 µM is 99% at PKCε(h); 101% at MAPK2(h); 76% on MST1(h); 111% at EphA5(h); 105% at PKA(h); 131% at Fms(h).
With `CC(=O)N1CCN(c2ccc3c(=O)c(C(=O)NCCN4CCCC4)c4n(C)c5ccccc5n4c3n2)CC1` [Compound B-1], the remaining activity at 2.5 µM on PKCε(h) was 109%; at MAPK2(h) it was 108%; at MST1(h), 96%; at EphA5(h), 101%; on PKA(h), 97%; on Fms(h), 107%.
